# In US8338622B2, “Heterocyclic compound” (Takeda Pharmaceutical Company Limited, priority 2008, dated 2012):
# Columns and labels:
# [1] = test system: Zucker fa/fa rats; assay: Hypoglycemic action in Zucker fa/fa rats (Experimental Example 4B); type: in vivo, rat; conditions: 10 mg/kg oral for 2 weeks, mean±SD n=5; for blood glucose level / RBP4: 24 hr after final administration; for glycated hemoglobin change (%): value after minus before administration; for RBP4: plasma
# Procedure: (§1) A hypoglycemic action of the compound of the present invention was evaluated using Zucker fa/fa rats.
# Male 25-week-old Zucker fa/fa rats (Takeda Pharmaceutical Company Limited) were acclimation bred in groups on CE-2 solid food (CLEA Japan, Inc.) up to 12 weeks of age, thereafter on high-fat diet D06110702 (LSG Corporation), with free access to food. At 25 weeks of age, the rats were grouped based on the body weight, blood glucose level, glycated hemoglobin level and blood RBP4 level (5 per group). Then, test compounds (Examples 16 and 17) were orally administered at a dose of 10 mg/kg (solvent: 0.5% methylcellulose solution (3 mL/kg)) for 2 weeks. At 24 hr from the final administration of the compounds, blood samples were collected from the tail vein, and plasma was separated. Using the collected plasma, (1) RBP4 concentration, (2) glycated hemoglobin level and (3) blood glucose level were measured. (1) was quantified according to the protocol described in Experimental Example 3. (2) was measured using Tosoh Corporation automatic glycohamoglobin analyzer (HLC-723 GHbV A1c2.2 or HLC-723G7 GHbV A1c2.2), and (3) was measured using Hitachi full-automatic analyzer (7070 or 7080).
# (§2) A 0.5% methylcellulose solution (3 ml/kg) was orally administered to the control group. The results are shown below in mean±standard deviation (n=5). In the following Table, glycated hemoglobin change is obtained by subtracting the value before administration from that after administration.
# [2] = target: T1, human RBP4 (Homo sapiens, UniProt P02753); assay: Binding assay by Retinol-RBP4-TTR ELISA (human type ELISA); conditions: retinol 0.5 μM, read-out: human RBP4 binding inhibitory activity (IC50 nM)
# T1 construct: the culture supernatant containing secreted/expressed hRBP4-His was recovered; His tag (His6, read from the HISENU oligo); made in house; host or cells: FreeStyle293 expression system (Invitrogen), secreted into the culture supernatant
# Procedure: The action of the compound of the present invention to inhibit the binding between RBP4, and retinol and TTR was evaluated using the Retinol-RBP4-TTR ELISA (human type ELISA) system shown below.
# The binding assay was performed by an ELISA system (Retinol-RBP4-TTR ELISA) for detecting retinol-RBP4-TTR conjugate by streptavidin-biotin reaction.
# His-tagged human RBP4 used was prepared in the above-mentioned 1C.
# Biotinylated human TTR used was prepared in the above-mentioned 1E.
# Streptavidin (20 μl) (10 μg/ml Streptavidin type II (Wako Pure Chemical Industries, Ltd.), 10 mM Tris-HCl (pH 7.5), 10 mM NaCl) was added to a 384 well black maxisorp plate (Nunc), and the plate was subjected to centrifugation (1000 rpm, 1 min) and coated overnight at 4° C. The plate was washed twice with PBST (PBS, 0.05% Tween 20, 100 μl/well) and blocked with 25% Block Ace (Snow Brand Milk Products Co., Ltd., PBS, 100 μl/well). The plate was subjected to centrifugation (1000 rpm, 1 min) and incubated at room temperature for 4 hr or overnight at 4° C. The plate was washed twice with PBST (PBS, 0.05% Tween 20, 100 μl/well), and biotinylated human TTR (stock solution concentration 1.3 mg/ml) diluted 1000-fold with PBST was added at 20 μl/well. The plate was subjected to centrifugation (1000 rpm, 1 min) and stood still at room temperature for 1.5 hr or overnight at 4° C. The plate was washed 3 times with PEST (100 μl/well), and His-tagged human RBP4 (stock solution concentration 0.96 mg/ml) diluted 4000-fold with a reaction buffer (50 mM Tris-HCl, 150 mM NaCl, 0.005% Tween 20, 1 mM DTT, 0.1% BSA) was added at 10 μl/well. The dilution series (8 doses from 10 mM, 200-fold concentration) of the compound was prepared with DMSO, and 1 μl of each was added to a reaction buffer (200 μl) containing retinol (0.5 μM) (Sigma-Aldrich Co.). A reaction buffer (200 μl) containing retinol and added with DMSO was used as a positive control, and reaction buffer (200 μl) free of retinol and added with DMSO was used as a negative control. Mixed solutions of retinol and the compound were added to the plate at 15 μl/well. The mixture was stirred in a platemixer, subjected to centrifugation (1000 rpm, 1 min) and reacted at room temperature for 2 hr. A 35% Block Ace solution diluted with the reaction buffer was added at 10 μl/well, centrifuged (1000 rpm, 1 min) and reacted at room temperature for 30 min. The plate was washed 3 times with PBST (100 μl/well) and SuperSignal ELISA Femto Maximum Sensitivity Substrate reagent (PIERCE) was added at 30 μl/well, and the luminescence was measured by a platereader (Wallac).
# The binding activity rate of the compound was determined by 100×(test compound value−negative control value)/(positive control value−negative control value). The binding inhibitory activity (IC50) was calculated from the binding activity rate at each compound concentration using a graph drawing software, Prism (GraphPad Software Inc.).
# [3] = target: T2, RBP4 (Mus musculus, UniProt Q00724); assay: Blood RBP4 lowering action in C57BL/6J mouse, single oral administration; type: in vivo; conditions: plasma, mean±SD n=5; for RBP4 (% of initial/Control) 0 hr later: 0 hr value before administration, 50 mg/kg oral; for RBP4 (% of initial/Control) 4 hr later: 4 hr after 50 mg/kg oral; for RBP4 (% of initial/Control) 7 hr later: 7 hr after 50 mg/kg oral; for RBP4 (% of initial/Control) 24 hr later: 24 hr after 50 mg/kg oral
# T2 construct: from tissue; host or cells: plasma of male C57BL/6J mice (Charles River Laboratories Japan Inc.)
# Procedure: A blood RBP4 lowering action of the compound of the present invention was evaluated using C57BL/6J mouse.
# Male 7- to 15-week-old C57BL/6J mice (Charles River Laboratories Japan Inc.) were individually bred for acclimation for 4-6 days under conditions with free access to CE-2 solid food (CLEA Japan, Inc.), and grouped based on the body weight (5 per group). The next day of grouping, blood samples were collected from the orbital venous plexus, and plasma was separated (0 hr value). Thereafter, the test compounds (Examples 1, 13, 15, 16, 17, 27 and 34) were orally administered at a dose of 50 mg/kg (solvent: 0.5% methylcellulose solution (10 mL/kg)). At 4, 7 and 24 hr after administration of the compounds, blood samples were collected from the orbital venous plexus, and plasma was separated. A 0.5% methylcellulose solution (10 mL/kg) was orally administered to the control group.
# The RBP4 level of the collected plasma was measured by ELISA. RBP4 was quantified by the following steps using a rabbit, anti-mouse RBP4 polyclonal antibody (Hokudo Co., Ltd). A 96 well ELISA plate was coated with 50 μg/ml of the antibody (100 μL) and stood at 4° C. overnight. After blocking with BlockAce (DAINIPPON PHARMACEUTICAL CO., LTD.), mouse RBP4 or a sample (100 μL) was added and the plate was stood at room temperature for 2 hr. After washing with PBS-0.5% Tween 20, HRP-labeled anti-RBP4 antibody (prepared by labeling RBP4 polyclonal antibody (Hokudo Co., Ltd) with HRP (DOJINDO LABORATORIES)) was added by 100 μL, and the plate was stood at room temperature for 1 hr. After washing, TMB (Dako Cytomations) was added, and the mixture was stood at room temperature for 20 min to allow color development, and the reaction was quenched with 2N sulfuric acid. Thereafter, the absorbance at A450 nm was measured on a platereader. The amount of change from the initial value of each animal was determined as a relative value from the control group (% of initial/Control) at each time point. The results are shown in the following in mean±standard deviation (n=5).
# [4] = test system: Zucker fa/fa rats; assay: Hypoglycemic action in Zucker fa/fa rats (Experimental Example 4A); type: in vivo, rat; conditions: 30 mg/kg oral for 2 weeks
# Procedure: as §1
# Male 19-week-old Zucker fa/fa rats (Takeda Pharmaceutical Company Limited) were bred in group on CE-2 solid food (CLEA Japan, Inc.) until 12-week-old, thereafter bred on high-fat diet D06110702 (LSG Corporation) for acclimation under conditions with free access to food. At 19-week-old, the rats were grouped based on the body weight, blood glucose level, glycated hemoglobin level and blood RBP4 level value (6 per group). Thereafter, the test compound (Example 34) was orally administered at a dose of 30 mg/kg (solvent: 0.5% methylcellulose solution (5 mL/kg)) for 2 weeks. After 24 hr of the final administration of the compound, blood samples were collected from the tail vein, and plasma was separated. Using the collected plasma, (1) RBP4 concentration, (2) glycated hemoglobin level and (3) blood glucose level were measured. (1) was quantified according to the protocol described in Experimental Example 3. (2) was measured using Tosoh Corporation automatic glycohemoglobin analyzer (HLC-723 GHbV A1c2.2 or HLC-723G7 GHbV A1c2.2), and (3) was measured using Hitachi full-automatic analyzer (7070 or 7080), respectively.
# as §2, with “(5 mL/kg)” for “(3 ml/kg)”, “group. […]” for “group.”, “in the following” for “below”, “(n=6).” for “(n=5).”
Compound,blood glucose level [1],glycated hemoglobin change (%) [1],RBP4 [1],IC50 [2],RBP4 (% of initial/Control) 0 hr later [3],RBP4 (% of initial/Control) 4 hr later [3],RBP4 (% of initial/Control) 7 hr later [3],RBP4 (% of initial/Control) 24 hr later [3],blood RBP4 concentration (in words) [4],blood glucose level (in words) [4],glycated hemoglobin change (in words) [4],"blood glucose level ([4]; 24 hr after final administration, mean±SD n=6)","glycated hemoglobin change (%) ([4]; value after minus before administration, mean±SD n=6)","RBP4 ([4]; plasma, 24 hr after final administration, mean±SD n=6)"
"O=C(O)CO[C@H]1CCN(c2cc(C(F)(F)F)cc(C(F)(F)F)c2)C1 [Example 16, ({(3S)-1-[3,5-bis(trifluoromethyl)phenyl]pyrrolidin-3-yl}oxy)acetic acid]",275.9 ± 127.5 mg/dL,−0.58 ± 0.59%,5.7 ± 0.1 µg/mL,28 nM,100.0 ± 11.0 % of initial/Control,39.5 ± 0.6 % of initial/Control,39.6 ± 0.4 % of initial/Control,37.5 ± 0.4 % of initial/Control,–,–,–,–,–,–
"O=C(O)CO[C@@H]1CCN(c2cc(C(F)(F)F)cc(C(F)(F)F)c2)C1 [Example 17, ({(3R)-1-[3,5-bis(trifluoromethyl)phenyl]pyrrolidin-3-yl}oxy)acetic acid]",255.4 ± 106.7 mg/dL,−0.60 ± 0.39%,6.0 ± 0.1 µg/mL,20 nM,100.0 ± 7.1 % of initial/Control,42.2 ± 0.6 % of initial/Control,40.5 ± 0.2 % of initial/Control,38.6 ± 0.8 % of initial/Control,–,–,–,–,–,–
"O=C(O)CCC1CCC(c2cc(C(F)(F)F)cc(C(F)(F)F)c2)O1 (racemic) [Example 34, 3-{5-[3,5-bis(trifluoromethyl)phenyl]tetrahydrofuran-2-yl}propanoic acid]",–,–,–,26 nM,100.0 ± 5.6 % of initial/Control,37.4 ± 2.4 % of initial/Control,34.8 ± 2.6 % of initial/Control,107.4 ± 15.3 % of initial/Control,significant decrease,significant decrease,significant decrease,157.2 ± 50.6 mg/dL,−1.72 ± 0.52%,5.2 ± 0.2 µg/mL
